Measured values taken from patent US8309578B2, “Bicyclic pyrazole and isoxazole derivatives as antitumor and antineurodegenerative agents” (Nerviano Medical Sciences S.r.l., priority 2008, dated 2012).
pIC50: −log10 of the molar value.

What follows are compounds tested on Her2 protein levels in BT474 breast cancer cells (assay: Her2 degradation in BT474 breast cancer cells (immunocytochemistry, ArrayScan vTi), marker for Hsp90 inhibition). Conditions: Homo sapiens, BT-474, 8 h treatment, concentration at which cellular Her2 signal is diminished by 50% vs untreated controls.
Type: cell-based
Description: The potency of the compounds of formula (I) were evaluated by measuring the Her2 degradation as a marker for Hsp90 inhibition.
Hsp90 is a key component of a chaperone machinery that catalyzes the folding and quality control of several proteins. Its inhibition impairs the capacity to fold or stabilize its client proteins, leading to the proteosomal dependent degradation of these unfolded proteins. At the moment there is an increasing number (>100) of reported Hsp90 clients, but one of the most frequently way to detect Hsp90 chaperone inhibition is the detection of Her2 protein levels after short time treatment (usually 8-24 h), in order to be sure about the specificity of this effect.
Cellular activity of Hsp90 inhibitors was assessed by measuring the induced loss of Her2 protein levels in BT474 breast cancer cells (ATCC #HTB-20). Cellular Her2 levels were measured by immunocytochemistry, and quantified using an ArrayScan vTi instrument (Cellomics Thermo Scientific).
Studies were performed as follows: 5000 cells/well are seeded in 96 well plates (Perkin Elmer) in DMEM/5% FCS and incubated for 48 h at 37° C., under 5% CO2.
Medium is then replaced with fresh medium containing test compounds at the required concentration. Concentration curves are prepared in DMEM/10% FCS from compound stocks in DMSO, and final DMSO concentration is 0.1% (v/v). Duplicate wells for each concentration point are prepared, with a typical highest compound concentration of 30 μM. After addition of compound, plates are returned to the incubator for 8 h, then fixed by replacing medium with PBS containing 3.7% paraformaldehyde solution. Plates are incubated for 20 minutes at room temperature, then wells are washed in PBS and cells permiabilised by incubating with PBS containing 0, 3% Triton X-100 for 15 minutes at room temperature. Non-specific binding sites are blocked by incubating wells for 1 h in PBS containing 3% (w/v) BSA. Wells are then incubated for 1 h at room temperature in PBS containing anti Her2 mouse monoclonal (Anti-c-ErbB2/c-Neu, Mouse mAb 3B5, Calbiochem Cat No OP15) diluted 1:100 in 1% (w/v) BSA. After 3 washes in PBS, wells are incubated in PBS (w/v) 1% BSA containing a 2 μg/ml of Cy2-conjugated Goat anti mouse secondary antibody (Amersham Pharmacia Biothech cat. No PA 42002) (Absorption maximum 489 nm fluorescence maximum 506 nm) and 1 μg/ml of DAPI (Absorption maximum 359 nm fluorescence maximum 461 nm) (4′,6-Diamidino-2-phenylindole, dilactate) (Sigma cat. No D 9564) a high sensitivity dye to detect nucleid acid for nuclear staining. After washing a further 3 times in PBS, cellular Her2 immunoreactivity is assessed using the ArrayScan vTi instrument, with a Zeiss 10×0.5 N.A. objective, and applying the Cytotoxity.V3 algorithm (Cellomics/Thermo Fisher) with a XF100 filter. At least 10 fields, corresponding to at least 900 cells, are read for each well. IC50 values represent the compound concentration at which cellular Her2 signal is diminished by 50% compared with untreated controls.
The following formula is used: IC50=Bottom+(Top−Bottom)/(1+10^((Log EC50−X)));
X is the logarithm of concentration. IC50 is the response; IC50 starts at Bottom and goes to Top with a sigmoid shape. The compounds of formula (I) tested as described above, result to induce the degradation of Her2 protein.
`Oc1cc(O)c(-c2n[nH]c3c2CN(Cc2ccc(-n4ccnn4)cc2)CC3)cc1Cl` [compound 49, 4-chloro-6-{5-[4-(1H-1,2,3-triazol-1-yl)benzyl]-4,5,6,7-tetrahydro-1H-pyrazolo[4,3-c]pyridin-3-yl}benzene-1,3-diol] gave a pIC50 of 5.47.
With `O=C(C1CCC2(CC1)OCCO2)N1CCc2n[nH]c(-c3cc(Cl)c(O)cc3O)c2C1` [compound 14, [3-(5-chloro-2,4-dihydroxyphenyl)-1,4,6,7-tetrahydro-5H-pyrazolo[4,3-c]pyridin-5-yl](1,4-dioxaspiro[4.5]dec-8-yl)methanone] the pIC50 was 5.96.
`Oc1cc(O)c(-c2onc3c2CN(Cc2ccc(-n4ccnc4)cc2)CC3)cc1Cl` [compound 67, 4-chloro-6-{5-[4-(1H-imidazol-1-yl)benzyl]-4,5,6,7-tetrahydroisoxazolo[4,3-c]pyridin-3-yl}benzene-1,3-diol] was tested, and the pIC50 was 5.06.
For `CO[C@H]1CC[C@H](C(=O)N2CCc3[nH]nc(-c4cc(Cl)c(O)cc4O)c3C2)CC1` [compound 17, [3-(5-chloro-2,4-dihydroxyphenyl)-1,4,6,7-tetrahydro-5H-pyrazolo[4,3-c]pyridin-5-yl](trans-4-methoxycyclohexyl)methanone], the pIC50 was 5.52.
`O=C(c1ccc(-n2ccnc2)cc1)N1CCc2[nH]nc(-c3cc(Cl)c(O)cc3O)c2C1` [compound 16, [3-(5-chloro-2,4-dihydroxyphenyl)-1,4,6,7-tetrahydro-5H-pyrazolo[4,3-c]pyridin-5-yl][4-(1H-imidazol-1-yl)phenyl]methanone] showed a pIC50 of 5.08.
Compound `COc1ccc(CN2CCc3[nH]nc(-c4cc(Cl)c(O)cc4O)c3C2)cc1OC` [compound 40, 4-chloro-6-[5-(3,4-dimethoxybenzyl)-4,5,6,7-tetrahydro-1H-pyrazolo[4,3-c]pyridin-3-yl]benzene-1,3-diol] has a pIC50 of 5.40.
